Data on one molecule can be found in article PMC11587505, “Identification and In Vitro and In Vivo Characterization of KAC-50.1 as a Potential α-Synuclein PET Radioligand” (ACS Chemical Neuroscience, 2024).

The target in this assay is T1, α-synuclein (recombinant fibrils) (Homo sapiens, UniProt P37840).
T1 construct: gene SNCA; recombinant human α-syn fibrils (pET-3a construct)
The assay can be described thus: radioligand saturation binding (filtration) on recombinant fibrils.

On to `COc1ccc(/C=C/c2cn(-c3ccccc3)nn2)cc1` [50.1, KAC-50.1], for which the Kd (in general, a measure of binding affinity in units of concentration) is 35 nM.
